Results reported in PubChem BioAssay (NCI).
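Results reflect a 48-hour exposure of cells in 96-well plates to compound at five concentrations. TGI is the concentration that stops growth completely.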

Key:
Assay in all cases: NCI anticancer screen, dose series, 48 h
IGROV1 ovarian = tested on: IGROV1 ovarian
K-562 leukemia = tested on: K-562 leukemia
LOX IMVI melanoma = tested on: LOX IMVI melanoma
M14 melanoma = tested on: M14 melanoma
MCF7 breast = tested on: MCF7 breast
NCI-H522 lung = tested on: NCI-H522 lung
OVCAR-4 ovarian = tested on: OVCAR-4 ovarian
SK-MEL-28 melanoma = tested on: SK-MEL-28 melanoma
SK-OV-3 ovarian = tested on: SK-OV-3 ovarian
RXF 393 renal = tested on: RXF 393 renal
SN12C renal = tested on: SN12C renal

Row | Compound | TGI (IGROV1 ovarian) [µM] | TGI (K-562 leukemia) [µM] | TGI (LOX IMVI melanoma) [µM] | TGI (M14 melanoma) [µM] | TGI (MCF7 breast) [µM] | TGI (NCI-H522 lung) [µM] | TGI (OVCAR-4 ovarian) [µM] | TGI (SK-MEL-28 melanoma) [µM] | TGI (SK-OV-3 ovarian) [µM] | TGI (RXF 393 renal) [µM] | TGI (SN12C renal) [µM]
1 | CC12CC(c3ccccc3O1)C(C(=O)Nc1ccc(Cl)cc1Cl)C(=O)N2 (centres undefined) | 50.9 | > 100 | 49.5 | 31.9 | > 100 | > 100 | 39.6 | > 100 | > 100 |  | 
2 | COC(=O)c1cc2ccc(N)nc2[nH]c1=O | > 100 |  | > 100 | > 100 | > 100 | > 100 | > 100 | > 100 | > 100 | > 100 | > 100
3 | COc1ccc(P2(=S)OC(C)(C)C(C)(C)O2)cc1 | > 100 | > 100 | > 100 | > 100 | > 100 | > 100 | > 100 | > 100 |  |  | > 100
4 | COC(=O)C1=C(O)C(C(=O)OC)[C@]2(O)[C@H](C(=O)OC)[C@H]1C[C@@H](c1ccc(C(F)(F)F)cc1)[C@H]2C(=O)OC (some centres undefined) | 29 | > 100 | 7.3 | 29.4 | > 100 |  | > 100 | 35.4 | > 100 | 6.5 | 27.6
5 | NNC(=O)c1n[nH]nc1C(=O)NN |  | > 100 |  | > 100 | > 100 |  |  |  |  | > 100 | > 100
6 | O=C(O)C(NCc1ccccc1)C(NCc1ccccc1)C(=O)O (centres undefined) | > 100 | > 100 | > 100 | > 100 | > 100 | > 100 | > 100 | > 100 | > 100 |  | > 100
7 | O=C(O)[C@@H]1CCS(=O)(=O)N1 | > 100 |  | > 100 | > 100 | > 100 | > 100 | > 100 | > 100 | > 100 | > 100 | > 100
8 | CCOC(=O)NC(Nc1ccc(S(=O)(=O)Nc2nc(C)cc(C)n2)cc1)(C(=O)OCC)C(F)(F)F (centres undefined) | > 100 | > 100 | > 100 | > 100 | > 100 |  | > 100 | > 100 | > 100 | > 100 | > 100
9 | COc1ccc(C(OCC2OC(n3cc(C)c(=O)[nH]c3=O)CC2n2cc(Cn3cc(Cl)c(=O)[nH]c3=O)nn2)(c2ccccc2)c2ccccc2)cc1 (centres undefined) | > 100 |  | > 100 | > 100 | > 100 | > 100 | > 100 | > 100 | > 100 | > 100 | > 100
10 | CC(C)(C)OC(=O)[C@H]1CCC(=S)N1Cc1ccccc1 | > 100 |  | > 100 | > 100 | > 100 | > 100 | > 100 | > 100 | > 100 | > 100 | > 100
11 | COc1ccc(S(=O)(=O)c2nnc(S(=O)(=O)Cc3ccccc3)s2)cc1 |  | > 100 |  | 33.1 | 60.6 | 27.1 | > 100 | 40.3 | 44.6 | 31.2 | 52.9
12 | O=[N+]([O-])c1ccc2c(c1)C1=C(CO2)Cc2ccccc2O1 | 55.4 | > 100 | 30.2 | 37.4 |  | 54.5 | > 100 |  | > 100 |  | 45.2
13 | NC(=O)C12CC3CC(CC(F)(C3)C1)C2 | > 100 | > 100 | > 100 | > 100 |  | > 100 |  | > 100 | > 100 | > 100 | 
14 | CSc1nc(Nc2cccc(C(F)(F)F)c2)c2c(N)nn(C)c2n1 | > 100 | > 100 | > 100 | > 100 |  | > 100 | > 100 | > 100 | > 100 | > 100 | > 100
15 | CCCCNC(=S)Nc1nc(C(=O)NNC(=S)Nc2ccccc2)cs1 |  |  |  | > 100 | > 100 |  | > 100 |  | > 100 |  | > 100
16 | O=c1c(/C=C/c2c(O)ccc3ccccc23)nnc2sc(-c3cccc(Br)c3)nn12 | 15.8 | 77.7 | 26.9 | 66.4 | 84.4 | 42.3 | 31.9 | > 100 | > 100 |  | 
17 | Cc1c(N=Nc2ccc(Cl)cc2)c(-c2ccccc2)n(C2OC(CO)C(O)C(O)C2O)c(=S)c1C#N (centres undefined) | 29.5 | 41.3 | 32.7 | 31.2 | 34.5 |  | 36 | 28.7 | 30.6 | 28.7 | 32.5
18 | COc1cc2c(C)cc(O)cc2c2cc(O)c(C)cc12 | 29 | 9.94 | 9.22 | 6.67 | 20.5 | 27.3 | 21.9 |  | 23.8 | 22.9 | 19.8
19 | COc1ccc(-[n+]2nc(S(=O)(=O)O)c(/C=C/c3ccc(N(C)C)cc3)cc2C#N)cc1 | > 100 | > 100 | > 100 | > 100 | > 100 | > 100 | > 100 | > 100 | > 100 |  | > 100
20 | CC(=O)Oc1c2c(c(O)c3ccccc13)C(n1cnc3c(ncn3C3OC(CO)C4OC(C)(C)OC43)c1=N)CCC2 (centres undefined) | 40.9 | 30 | 21 |  |  | 19.3 |  | 31.8 | 33.1 | 32.3 | 37.9
21 | N#Cc1c(N)n(-c2cccc(C(=O)O)c2)c(=O)c2cc([N+](=O)[O-])ccc12 |  | > 100 | > 100 |  |  |  | > 100 | > 100 |  |  | > 100
22 | CN(C)CCC(=O)c1ccccc1 | > 71 | 85.4 | 57.8 | 52.6 |  | 1.06 | > 74.1 | > 67.4 | > 68.8 | 61.6 | > 70.1
23 | CCOc1ccccc1NC(=O)C(=O)CC(=O)c1sc(Nc2nnc(-c3ccc(Cl)c(Cl)c3)o2)nc1C | > 100 | > 100 | > 100 | > 100 |  |  | > 100 | > 100 | > 100 | > 100 | > 100
